From US12263181B2, “Phospholipid compositions” (MACHAVERT PHARMACEUTICALS LLC, priority 2016, dated 2025)

Columns and labels:
[1] = system: human pancreatic carcinoma cell line (Capan-2); assay: In vivo tumor growth inhibition, Capan-2 xenograft in nude mice; settings: oral, 0.1 mL of a 30% (w/w) solution in sunflower oil once a day for 42 days
Protocol: In vivo measurements of tumor growth inhibition in mice were conducted to determine efficacy of BAP(+), BAP(−), and fractions thereof. A human pancreatic carcinoma cell line (Capan-2 available from European Collection of Cell Cultures, Salisbury UK) was cultivated at 37° C. in a humidified 5% CO2/95% air atmosphere using high glucose D-MEM medium supplemented with 20% fetal bovine serum, 2% penicillin/streptomycin and 1.25% L-glutamine. Before application, cells were harvested by trypsinisation for 30 minutes. Harvested Capan-2 cells were administered subcutaneously to each mouse as 1×10^7 cells in a mixture with a basement membrane preparation (BD MATRIGEL, available from I.T.A.-Interact, Prague CZ). Administration was in the rear right flank of Hsd:athymic nude-Fox n1nu mice (available from Anlab, Prague CZ). […]
Table 12 gives the percentage of tumor weight growth inhibition (% WGI) as compared to the control for various BAP mixtures including BAP(−), BAP(+), pooled fractions F1-F4, F5, a fraction comprising a pooled collection of the F5 sub-fractions enriched in more PCs comprising saturated fatty acids acyl residues (“F5A”), a fraction which comprising a pooled collection of F5 sub-fractions enriched in more PCs comprising unsaturated fatty acid acyl residues (“F5B”), and a fraction of BAP(+) possibly enriched in LPC's (“F5C”). Glycerophosphocholine (GPC) was also evaluated. […]

SPHK1 kinase = biological target: T1, SPHK1 kinase (Homo sapiens, UniProt Q9NYA1); assay: FRET-peptide kinase inhibition (SELECTSCREEN Kinase Profiling Service); assay type: biochemical; settings: 10 μM solution, ATP at Km
T1 construct: purchased Life Technologies
Protocol: (§1) Inhibition of various kinases was measured using fluorescence resonance energy transfer (FRET) analysis. Briefly, a kinase is used to transfer the γ-phosphate of ATP to a single tyrosine, serine, or threonine residue in a synthetic FRET-peptide in the presence of each tested fraction. A kinase inhibitor will prevent phosphorylation. FRET-peptides comprise a donor fluorophore and an acceptor fluorophore, where the acceptor fluorophore will only undergo fluorescence from the excitation wavelength of the donor fluorophore due to resonant energy transfer through the peptide. A development reagent is used to cleave the un-phosphorylated FRET-peptides. An uncleaved FRET-peptide (i.e., phosphorylated peptide) will therefore undergo measureable FRET of both acceptor and donor and be indicative of kinase inhibition. […] Because phosphorylation of FRET-peptides suppresses cleavage by the development reagent, calculation of the ratio of donor emission to acceptor emission after excitation of the donor fluorophore at approximately 400 nm is used to quantitate reaction progress. Low ratios indicate the FRET-peptide is phosphorylated (i.e., little kinase inhibition) and high ratios […] (i.e., kinase inhibition). The percent phosphorylation can therefore be calculated from the emission ratio based on controls for the maximum and minimum phosphorylation. The percent inhibition can be calculated based on the percent phosphorylation of a sample with each fraction as compared to the percent phosphorylation without each fraction.
(§2) The kinase inhibitory activity of various 10 μM solutions of various fractions was measured using the SELECTSCREEN Kinase Profiling Service available from Life Technologies. Unless otherwise indicated, the concentration of ATP in each well is the Michaelis-Menten constant (Km value-the concentration of ATP when the phosphorylation reaction velocity is equal half of the maximal velocity for the reaction). […] Z′ is a measure of statistical effect size to assess the quality of the assay. Z′>0.5 is indicative measurement separated from the background and a reliable assay result. The average % inhibition is representative of two independent measurements.

mTOR kinase = biological target: T2, mTOR kinase (Homo sapiens, UniProt P42345); assay: as above; assay type: biochemical; settings: kinase FRAP1 (mTOR); 10 μM solution; ATP at Km
T2 construct: purchased Life Technologies
Protocol: as §1, §2

various kinases [2] = biological target: T3, various kinases (Homo sapiens, UniProt O14965); assay: as above; assay type: biochemical; settings: kinase AURKA (Aurora A); 10 μM solution; ATP at Km
T3 construct: purchased Life Technologies
T3 sequence (O14965 1-403): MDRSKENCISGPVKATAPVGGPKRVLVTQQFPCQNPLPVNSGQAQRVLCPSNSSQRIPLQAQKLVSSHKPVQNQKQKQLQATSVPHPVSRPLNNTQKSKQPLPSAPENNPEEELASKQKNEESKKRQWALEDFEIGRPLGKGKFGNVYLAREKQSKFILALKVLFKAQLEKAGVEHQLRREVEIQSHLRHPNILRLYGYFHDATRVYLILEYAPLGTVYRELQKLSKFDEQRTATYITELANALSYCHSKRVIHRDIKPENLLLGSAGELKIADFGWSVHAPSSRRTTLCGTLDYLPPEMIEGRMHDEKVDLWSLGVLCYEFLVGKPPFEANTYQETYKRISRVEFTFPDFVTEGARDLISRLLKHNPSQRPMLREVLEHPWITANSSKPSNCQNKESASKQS
Protocol: as §1, §2

various kinases [3] = biological target: T4, various kinases (Homo sapiens, UniProt P41279); assay: as above; assay type: biochemical; settings: kinase MAP3K8 (COT); 10 μM solution; ATP concentration of 100 μM
T4 construct: purchased Life Technologies
Protocol: as §1, §2

various kinases [4] = biological target: T5, various kinases (Homo sapiens, UniProt P48736); assay: as above; assay type: biochemical; settings: kinase PIK3CG (p110 gamma); 10 μM solution; ATP at Km
T5 construct: purchased Life Technologies
Protocol: as §1, §2

various kinases [5] = biological target: T6, various kinases (Homo sapiens, UniProt Q8TF76); assay: as above; assay type: biochemical; settings: kinase GSG2 (Haspin); 10 μM solution; ATP at Km
T6 construct: purchased Life Technologies
T6 sequence (Q8TF76 1-798): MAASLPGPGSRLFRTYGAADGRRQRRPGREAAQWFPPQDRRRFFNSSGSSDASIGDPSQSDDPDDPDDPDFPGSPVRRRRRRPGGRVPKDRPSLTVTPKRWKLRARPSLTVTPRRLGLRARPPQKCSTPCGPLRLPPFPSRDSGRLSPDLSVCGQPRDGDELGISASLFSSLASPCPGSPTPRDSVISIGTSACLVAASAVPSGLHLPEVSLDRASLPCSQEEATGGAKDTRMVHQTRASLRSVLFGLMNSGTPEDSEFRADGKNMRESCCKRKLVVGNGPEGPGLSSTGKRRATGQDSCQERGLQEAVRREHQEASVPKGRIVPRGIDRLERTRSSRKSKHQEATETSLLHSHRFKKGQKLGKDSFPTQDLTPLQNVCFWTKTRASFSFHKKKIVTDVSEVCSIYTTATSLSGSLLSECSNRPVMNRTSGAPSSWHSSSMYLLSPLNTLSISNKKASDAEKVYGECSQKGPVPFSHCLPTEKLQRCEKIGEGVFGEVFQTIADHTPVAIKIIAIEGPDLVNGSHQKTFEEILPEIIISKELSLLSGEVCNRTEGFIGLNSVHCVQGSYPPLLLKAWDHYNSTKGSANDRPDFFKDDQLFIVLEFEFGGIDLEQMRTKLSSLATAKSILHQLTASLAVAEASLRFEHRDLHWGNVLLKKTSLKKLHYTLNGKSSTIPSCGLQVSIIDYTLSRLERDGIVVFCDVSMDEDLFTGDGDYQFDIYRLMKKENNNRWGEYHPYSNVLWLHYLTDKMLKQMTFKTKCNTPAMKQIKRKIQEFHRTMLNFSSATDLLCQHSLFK
Protocol: as §1, §2

various kinases [6] = biological target: T7, various kinases (Homo sapiens, UniProt Q96GD4); assay: as above; assay type: biochemical; settings: kinase AURKB (Aurora B); 10 μM solution; ATP at Km
T7 construct: purchased Life Technologies
Protocol: as §1, §2

ABL1 M351T = biological target: T8, ABL1 M351T (Homo sapiens, UniProt P00519, M351T); assay: LANTHASCREEN Eu Kinase Binding Assay; settings: 10 μM solutions, two independent measurements
T8 construct: purchased Life Technologies
Protocol: (§3) Measurement of inhibition of various kinases was also performed by binding a tracer to a kinase and the addition of Europium labeled anti-tag antibodies. When bound to the same kinase, the tracer and Europium interact through FRET and fluoresce. Binding of the tracer and antibody to a kinase results in a high degree of FRET, whereas displacement of the tracer with a kinase inhibitor results in a loss of FRET. This method of measurement removes the cleavage step necessary in the above FRET measurement.
(§4) The kinase inhibitory activity of various 10 μM solutions of various fractions was measured (LANTHASCREEN Eu Kinase Binding Assay Profiling Service available from Life Technologies). In these measurements, greater percent displacement indicates greater kinase inhibition. […] The average % displacement is representative of two independent measurements.

ALK C1156Y = biological target: T9, ALK C1156Y (Homo sapiens, UniProt Q9UM73, C1156Y); assay: LANTHASCREEN Eu Kinase Binding Assay; settings: 10 μM solutions, two independent measurements
T9 construct: purchased Life Technologies
Protocol: as §3, §4

EGFR (ErbB1) d746-750 = biological target: T10, EGFR (ErbB1) d746-750 (Homo sapiens, UniProt P00533, DEL746-750); assay: LANTHASCREEN Eu Kinase Binding Assay; settings: 10 μM solutions, two independent measurements
T10 construct: purchased Life Technologies
Protocol: as §3, §4

KIT D816H = biological target: T11, KIT D816H (Homo sapiens, UniProt P10721, D816H); assay: LANTHASCREEN Eu Kinase Binding Assay; settings: 10 μM solutions, two independent measurements
T11 construct: purchased Life Technologies
Protocol: as §3, §4

KIT N822K = biological target: T12, KIT N822K (Homo sapiens, UniProt P10721, N822K); assay: LANTHASCREEN Eu Kinase Binding Assay; settings: 10 μM solutions, two independent measurements
T12 construct: purchased Life Technologies
Protocol: as §3, §4

KIT Y823D = biological target: T13, KIT Y823D (Homo sapiens, UniProt P10721, Y823D); assay: LANTHASCREEN Eu Kinase Binding Assay; settings: 10 μM solutions, two independent measurements
T13 construct: purchased Life Technologies
Protocol: as §3, §4

TTK = biological target: T14, TTK (Homo sapiens, UniProt P33981); assay: LANTHASCREEN Eu Kinase Binding Assay; settings: 10 μM solutions, two independent measurements
T14 construct: purchased Life Technologies
T14 sequence (P33981 1-857): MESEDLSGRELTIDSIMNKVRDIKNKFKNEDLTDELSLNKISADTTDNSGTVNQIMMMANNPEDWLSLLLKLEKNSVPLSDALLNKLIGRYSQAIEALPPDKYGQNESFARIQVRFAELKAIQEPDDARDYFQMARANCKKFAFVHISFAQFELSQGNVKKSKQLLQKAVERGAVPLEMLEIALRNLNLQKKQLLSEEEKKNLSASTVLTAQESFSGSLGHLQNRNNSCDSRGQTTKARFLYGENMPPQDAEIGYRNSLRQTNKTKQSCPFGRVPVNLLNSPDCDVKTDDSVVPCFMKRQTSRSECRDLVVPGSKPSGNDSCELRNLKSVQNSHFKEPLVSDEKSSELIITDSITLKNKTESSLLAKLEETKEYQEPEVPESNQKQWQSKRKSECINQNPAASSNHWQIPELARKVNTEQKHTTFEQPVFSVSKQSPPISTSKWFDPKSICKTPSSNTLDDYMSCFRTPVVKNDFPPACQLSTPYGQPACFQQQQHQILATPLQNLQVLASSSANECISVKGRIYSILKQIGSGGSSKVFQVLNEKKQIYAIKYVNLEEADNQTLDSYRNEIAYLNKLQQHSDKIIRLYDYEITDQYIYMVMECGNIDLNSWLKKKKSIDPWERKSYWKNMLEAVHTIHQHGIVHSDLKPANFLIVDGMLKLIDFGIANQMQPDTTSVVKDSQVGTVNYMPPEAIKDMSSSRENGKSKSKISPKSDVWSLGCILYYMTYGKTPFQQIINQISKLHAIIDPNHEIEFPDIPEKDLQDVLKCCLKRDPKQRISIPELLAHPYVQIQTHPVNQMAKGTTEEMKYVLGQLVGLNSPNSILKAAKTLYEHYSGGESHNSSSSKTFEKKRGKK
Protocol: as §3, §4

WEE1 = biological target: T15, WEE1 (Homo sapiens, UniProt P30291); assay: LANTHASCREEN Eu Kinase Binding Assay; settings: 10 μM solutions, two independent measurements
T15 construct: purchased Life Technologies
Protocol: as §3, §4

T1 sequence (Q9NYA1 whole entry): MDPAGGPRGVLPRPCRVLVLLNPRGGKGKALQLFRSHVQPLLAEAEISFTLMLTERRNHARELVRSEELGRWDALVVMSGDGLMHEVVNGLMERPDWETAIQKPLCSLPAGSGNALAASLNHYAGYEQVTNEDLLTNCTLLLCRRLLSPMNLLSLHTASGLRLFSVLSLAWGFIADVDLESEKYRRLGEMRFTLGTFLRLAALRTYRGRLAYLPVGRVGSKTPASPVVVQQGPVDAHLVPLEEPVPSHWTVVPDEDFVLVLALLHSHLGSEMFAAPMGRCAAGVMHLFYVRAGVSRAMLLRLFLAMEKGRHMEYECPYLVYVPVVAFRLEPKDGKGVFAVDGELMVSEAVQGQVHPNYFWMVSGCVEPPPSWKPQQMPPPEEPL
T9 sequence (Q9UM73 19-1620 C1156Y): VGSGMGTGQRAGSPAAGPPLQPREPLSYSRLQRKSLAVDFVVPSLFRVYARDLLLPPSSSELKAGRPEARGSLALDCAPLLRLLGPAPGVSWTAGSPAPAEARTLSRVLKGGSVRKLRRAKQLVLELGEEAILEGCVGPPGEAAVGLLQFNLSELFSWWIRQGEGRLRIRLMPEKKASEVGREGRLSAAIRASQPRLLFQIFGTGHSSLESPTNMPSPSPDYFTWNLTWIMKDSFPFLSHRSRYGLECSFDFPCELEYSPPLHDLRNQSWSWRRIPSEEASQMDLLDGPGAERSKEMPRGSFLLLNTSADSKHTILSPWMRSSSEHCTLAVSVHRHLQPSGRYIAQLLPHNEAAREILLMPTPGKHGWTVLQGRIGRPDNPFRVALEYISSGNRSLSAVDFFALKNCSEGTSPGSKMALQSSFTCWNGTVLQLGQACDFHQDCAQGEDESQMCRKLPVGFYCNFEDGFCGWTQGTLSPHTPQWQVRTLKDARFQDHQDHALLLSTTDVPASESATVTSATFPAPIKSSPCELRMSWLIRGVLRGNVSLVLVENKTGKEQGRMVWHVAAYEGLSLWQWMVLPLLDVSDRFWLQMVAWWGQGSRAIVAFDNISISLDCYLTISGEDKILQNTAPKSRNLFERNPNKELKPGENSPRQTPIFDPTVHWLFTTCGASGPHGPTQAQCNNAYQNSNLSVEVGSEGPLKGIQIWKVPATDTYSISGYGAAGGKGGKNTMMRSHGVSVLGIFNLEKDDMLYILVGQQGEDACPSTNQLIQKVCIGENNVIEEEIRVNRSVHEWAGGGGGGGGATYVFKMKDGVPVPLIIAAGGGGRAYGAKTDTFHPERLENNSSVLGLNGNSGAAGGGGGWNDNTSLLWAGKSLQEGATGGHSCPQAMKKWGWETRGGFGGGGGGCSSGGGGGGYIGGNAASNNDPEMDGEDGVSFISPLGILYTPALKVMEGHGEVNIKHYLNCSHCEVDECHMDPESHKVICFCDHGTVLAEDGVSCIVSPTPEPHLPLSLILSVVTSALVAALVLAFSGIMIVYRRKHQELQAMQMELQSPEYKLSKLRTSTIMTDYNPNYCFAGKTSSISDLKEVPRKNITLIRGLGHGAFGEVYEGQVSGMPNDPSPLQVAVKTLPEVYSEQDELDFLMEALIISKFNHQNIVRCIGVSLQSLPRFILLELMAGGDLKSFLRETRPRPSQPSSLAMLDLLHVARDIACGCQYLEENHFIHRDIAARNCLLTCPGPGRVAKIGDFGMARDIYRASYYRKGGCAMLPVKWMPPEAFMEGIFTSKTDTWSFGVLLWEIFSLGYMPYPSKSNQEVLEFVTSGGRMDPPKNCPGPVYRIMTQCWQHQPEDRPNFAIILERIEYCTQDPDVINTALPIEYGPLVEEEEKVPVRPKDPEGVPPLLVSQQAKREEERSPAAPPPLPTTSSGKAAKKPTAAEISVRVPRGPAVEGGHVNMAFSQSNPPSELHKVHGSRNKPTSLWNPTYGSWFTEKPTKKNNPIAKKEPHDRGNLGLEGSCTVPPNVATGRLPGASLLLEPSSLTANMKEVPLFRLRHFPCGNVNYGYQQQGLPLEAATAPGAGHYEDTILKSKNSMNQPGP
T5 sequence (P48736 whole entry): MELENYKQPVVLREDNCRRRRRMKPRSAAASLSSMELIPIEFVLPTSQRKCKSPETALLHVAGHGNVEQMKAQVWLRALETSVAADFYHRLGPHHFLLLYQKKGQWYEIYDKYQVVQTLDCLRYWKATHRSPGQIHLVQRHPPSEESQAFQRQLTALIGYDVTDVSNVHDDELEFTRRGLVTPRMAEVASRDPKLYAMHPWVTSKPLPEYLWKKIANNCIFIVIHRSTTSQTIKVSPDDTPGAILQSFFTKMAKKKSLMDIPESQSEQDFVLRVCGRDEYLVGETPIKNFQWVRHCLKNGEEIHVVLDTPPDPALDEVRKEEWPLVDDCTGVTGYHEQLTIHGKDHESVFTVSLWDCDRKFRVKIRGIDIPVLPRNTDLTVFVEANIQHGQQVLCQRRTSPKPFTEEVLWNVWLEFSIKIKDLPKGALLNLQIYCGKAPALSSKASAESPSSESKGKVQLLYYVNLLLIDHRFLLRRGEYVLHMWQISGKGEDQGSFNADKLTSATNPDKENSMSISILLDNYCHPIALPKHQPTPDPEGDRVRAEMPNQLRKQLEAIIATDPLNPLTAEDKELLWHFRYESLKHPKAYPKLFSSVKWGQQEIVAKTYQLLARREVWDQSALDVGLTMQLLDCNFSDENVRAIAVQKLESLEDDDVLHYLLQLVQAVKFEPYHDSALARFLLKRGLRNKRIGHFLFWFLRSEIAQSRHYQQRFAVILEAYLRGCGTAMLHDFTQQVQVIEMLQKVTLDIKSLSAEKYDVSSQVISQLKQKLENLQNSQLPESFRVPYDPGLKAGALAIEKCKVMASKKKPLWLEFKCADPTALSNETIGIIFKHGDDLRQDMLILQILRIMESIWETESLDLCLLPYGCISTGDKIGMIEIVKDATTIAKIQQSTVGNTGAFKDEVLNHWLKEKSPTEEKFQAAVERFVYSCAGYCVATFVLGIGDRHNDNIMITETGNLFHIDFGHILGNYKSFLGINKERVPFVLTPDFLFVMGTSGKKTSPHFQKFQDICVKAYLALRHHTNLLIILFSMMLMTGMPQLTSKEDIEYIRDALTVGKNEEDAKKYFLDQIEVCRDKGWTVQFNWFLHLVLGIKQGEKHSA
T13 sequence (P10721 26-976 Y823D): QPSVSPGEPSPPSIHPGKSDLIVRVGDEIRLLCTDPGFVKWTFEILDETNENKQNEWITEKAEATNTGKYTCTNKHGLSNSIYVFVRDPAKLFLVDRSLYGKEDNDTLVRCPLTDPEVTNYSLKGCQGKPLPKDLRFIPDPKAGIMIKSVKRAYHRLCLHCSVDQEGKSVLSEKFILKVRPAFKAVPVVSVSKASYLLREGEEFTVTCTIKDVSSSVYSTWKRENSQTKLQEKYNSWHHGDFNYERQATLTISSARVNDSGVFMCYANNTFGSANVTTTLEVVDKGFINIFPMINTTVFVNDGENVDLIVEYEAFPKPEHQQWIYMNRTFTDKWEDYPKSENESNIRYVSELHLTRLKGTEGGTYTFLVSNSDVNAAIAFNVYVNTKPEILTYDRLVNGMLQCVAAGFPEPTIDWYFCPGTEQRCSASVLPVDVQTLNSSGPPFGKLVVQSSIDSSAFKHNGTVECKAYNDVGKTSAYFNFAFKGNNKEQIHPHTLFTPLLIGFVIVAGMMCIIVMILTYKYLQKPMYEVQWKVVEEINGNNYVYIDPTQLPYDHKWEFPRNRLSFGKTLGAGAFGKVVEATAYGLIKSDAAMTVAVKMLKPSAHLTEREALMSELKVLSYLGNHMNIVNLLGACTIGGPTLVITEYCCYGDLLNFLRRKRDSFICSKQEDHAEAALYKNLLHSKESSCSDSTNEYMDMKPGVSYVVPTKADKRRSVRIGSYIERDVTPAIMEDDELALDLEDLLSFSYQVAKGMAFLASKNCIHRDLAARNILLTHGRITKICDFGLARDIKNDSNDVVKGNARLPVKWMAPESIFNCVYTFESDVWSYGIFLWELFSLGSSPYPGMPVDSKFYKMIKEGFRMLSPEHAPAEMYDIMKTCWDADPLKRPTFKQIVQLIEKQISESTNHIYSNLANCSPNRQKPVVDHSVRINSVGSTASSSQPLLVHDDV
T11 sequence (P10721 26-976 D816H): as the sequence (P10721 26-976 Y823D) above, with D791H, D798Y counted along it
T12 sequence (P10721 26-976 N822K): as the sequence (P10721 26-976 Y823D) above, with N797K, D798Y counted along it
T10 sequence (P00533 with tags, fused parts or gaps DEL746-750 limits assumed): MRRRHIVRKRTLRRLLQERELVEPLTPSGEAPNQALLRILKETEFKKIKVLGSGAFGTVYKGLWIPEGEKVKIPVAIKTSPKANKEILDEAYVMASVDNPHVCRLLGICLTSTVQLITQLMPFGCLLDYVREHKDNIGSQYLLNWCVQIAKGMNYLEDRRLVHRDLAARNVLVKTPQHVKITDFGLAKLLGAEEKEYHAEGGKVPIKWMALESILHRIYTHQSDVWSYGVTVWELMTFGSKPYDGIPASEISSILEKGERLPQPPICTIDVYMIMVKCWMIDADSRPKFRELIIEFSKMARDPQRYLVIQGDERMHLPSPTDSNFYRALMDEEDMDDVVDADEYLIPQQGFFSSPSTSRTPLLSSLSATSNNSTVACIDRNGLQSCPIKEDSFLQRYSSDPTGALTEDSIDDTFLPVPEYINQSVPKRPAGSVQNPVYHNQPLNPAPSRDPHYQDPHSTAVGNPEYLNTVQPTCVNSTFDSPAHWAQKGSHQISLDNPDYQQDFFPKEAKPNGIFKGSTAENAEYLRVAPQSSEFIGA
T7 sequence (Q96GD4 whole entry): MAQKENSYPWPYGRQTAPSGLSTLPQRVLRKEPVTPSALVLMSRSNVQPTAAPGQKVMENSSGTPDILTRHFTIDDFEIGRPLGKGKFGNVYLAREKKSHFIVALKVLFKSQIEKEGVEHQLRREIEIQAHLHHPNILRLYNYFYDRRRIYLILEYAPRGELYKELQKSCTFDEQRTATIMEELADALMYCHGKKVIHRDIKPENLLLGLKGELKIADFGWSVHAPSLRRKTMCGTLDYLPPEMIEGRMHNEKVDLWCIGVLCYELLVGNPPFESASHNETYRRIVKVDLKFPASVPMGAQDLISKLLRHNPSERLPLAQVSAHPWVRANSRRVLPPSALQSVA

- Average % Inhibition (SPHK1 kinase): −5%
- Average % Inhibition (mTOR kinase): −1%
- Average % Inhibition (various kinases [2]): 22%
- Average % Inhibition (various kinases [3]): 7%
- Average % Inhibition (various kinases [4]): 2%
- Average % Inhibition (various kinases [5]): 14%
- Average % Inhibition (various kinases [6]): 13%
- Average % Displacement (ABL1 M351T): 4%
- Average % Displacement (ALK C1156Y): 4%
- Average % Displacement (EGFR (ErbB1) d746-750): −1%
- Average % Displacement (KIT D816H): 1%
- Average % Displacement (KIT N822K): −1%
- Average % Displacement (KIT Y823D): 2%
- Average % Displacement (TTK): 24%
- Average % Displacement (WEE1): 5%
Structure (SMILES): C[N+](C)(C)CCOP(=O)([O-])OC[C@H](O)CO [GPC, glycerophosphocholine]
- % WGI (percentage of tumor weight growth inhibition as compared to the control) [1]: −41.9%
